{
  "source": "patent US9458184B2",
  "about": "“Compositions of TLR7 and/or TLR8 agonists conjugated to lipids” (CAYLA, priority 2012, dated 2016)",
  "key": {"human TLR7": {"target": "T1, human TLR7 (Homo sapiens, UniProt Q9NYK1)", "T1 sequence (Q9NYK1 27-1049)": "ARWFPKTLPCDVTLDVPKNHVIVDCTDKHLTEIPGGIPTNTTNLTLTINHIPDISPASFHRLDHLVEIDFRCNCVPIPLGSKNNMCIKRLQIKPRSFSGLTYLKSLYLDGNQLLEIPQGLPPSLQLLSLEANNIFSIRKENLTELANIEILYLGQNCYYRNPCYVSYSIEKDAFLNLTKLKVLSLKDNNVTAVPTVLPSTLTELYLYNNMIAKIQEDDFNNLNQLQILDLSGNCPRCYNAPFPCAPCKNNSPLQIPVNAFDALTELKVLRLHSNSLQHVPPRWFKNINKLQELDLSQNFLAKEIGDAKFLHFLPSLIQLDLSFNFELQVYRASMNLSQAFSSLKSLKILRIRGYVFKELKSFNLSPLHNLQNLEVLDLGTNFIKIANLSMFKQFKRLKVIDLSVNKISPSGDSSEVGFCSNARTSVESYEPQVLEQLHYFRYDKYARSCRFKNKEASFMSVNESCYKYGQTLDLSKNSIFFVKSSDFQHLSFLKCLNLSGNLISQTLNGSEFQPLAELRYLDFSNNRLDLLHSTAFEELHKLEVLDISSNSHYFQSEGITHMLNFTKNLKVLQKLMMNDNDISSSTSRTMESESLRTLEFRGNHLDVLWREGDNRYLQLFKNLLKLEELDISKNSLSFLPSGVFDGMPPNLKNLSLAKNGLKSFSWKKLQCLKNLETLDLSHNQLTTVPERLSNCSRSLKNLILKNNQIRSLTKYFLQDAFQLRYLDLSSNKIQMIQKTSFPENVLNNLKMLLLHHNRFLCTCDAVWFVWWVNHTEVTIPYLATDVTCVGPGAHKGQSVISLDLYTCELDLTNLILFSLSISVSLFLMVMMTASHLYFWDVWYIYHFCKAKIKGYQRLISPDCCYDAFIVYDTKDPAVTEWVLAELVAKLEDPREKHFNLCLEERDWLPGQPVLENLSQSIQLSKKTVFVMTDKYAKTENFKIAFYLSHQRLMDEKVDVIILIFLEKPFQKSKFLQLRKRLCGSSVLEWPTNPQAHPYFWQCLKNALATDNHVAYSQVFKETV", "experiment": "HEK-Blue hTLR7 NF-κB/AP-1 SEAP reporter cell assay"}, "B16-F1 tumor": {"system": "B16-F1 tumor", "experiment": "Mouse B16 tumor model, intratumoral injection", "assay_type": "in vivo, C57BL/6 mice", "details": "by day 28, 3 intra-tumoral injections, 40 μg in 100 μl"}, "plasmid DNA": {"system": "plasmid DNA", "assay_type": "physicochemical"}, "[1]": {"system": "mouse B16 melanoma cell line", "experiment": "Cell transfection with SEAP plasmid, B16", "assay_type": "cell-based", "details": "complexed with pVitro14 LGFP SEAP plasmid, B16, 48 hours"}, "human HEK293 cell line": {"system": "human HEK293 cell line", "experiment": "Cell transfection with SEAP plasmid, HEK293", "assay_type": "cell-based", "details": "complexed with pVitro14 LGFP SEAP plasmid, HEK293, 48 hours"}},
  "data": [
    {"smiles": "CCCCNc1nc(N)c2nc(O)n(Cc3ccc(C(=O)NCC(=O)NCCCC[C@H](NCCCP(=O)(OCCC(C)CCCC(C)CCCC(C)CCCC(C)C)OCCC(C)CCCC(C)CCCC(C)CCCC(C)C)C(=O)NCCCNCCCCNCCCN)cc3)c2n1", "note": "(stereo in doubt) [CL493, (S)-bis(3,7,11,15-tetramethylhexadecyl) 19-amino-5-(4-(2-(4-((6-amino-2-(butylamino)-8-hydroxy-9H-purin-9-yl)methyl)benzamido)acetamido)butyl)-6-oxo-4,7,11,16-tetraazanonadecylphosphonate]", "values": [
      {"measurement": "TLR7 activity (NF-κB/AP-1-inducible SEAP reporter)", "setting": "human TLR7", "value": "strong and specific TLR7 activity"}
    ]},
    {"smiles": "CCCCNc1nc(N)c2nc(O)n(Cc3ccc(C(=O)NCCCNCCCCNCCCNCCCP(=O)(OCCC(C)CCCC(C)CCCC(C)CCCC(C)C)OCCC(C)CCCC(C)CCCC(C)CCCC(C)C)cc3)c2n1", "note": "(centres unmarked) [CL346, bis(3,7,11,15-tetramethylhexadecyl) 1-(4-((6-amino-2-(butylamino)-8-hydroxy-9H-purin-9-yl)methyl)phenyl)-1-oxo-2,6,11,15-tetraazaoctadecan-18-ylphosphonate]", "values": [
      {"measurement": "TLR7 activity (NF-κB/AP-1-inducible SEAP reporter)", "setting": "human TLR7", "value": "strong and specific TLR7 activity"}
    ]},
    {"smiles": "CCCCNc1nc(N)c2nc(O)n(Cc3ccc(C(=O)NCC(=O)NCCCNCCCCNCCCNCCCP(=O)(OCCC(C)CCCC(C)CCCC(C)CCCC(C)C)OCCC(C)CCCC(C)CCCC(C)CCCC(C)C)cc3)c2n1", "note": "(centres unmarked) [CL347, bis(3,7,11,15-tetramethylhexadecyl) 1-(4-((6-amino-2-(butylamino)-8-hydroxy-9H-purin-9-yl)methyl)phenyl)-1,4-dioxo-2,5,9,14,18-pentaazahenicosan-21-ylphosphonate]", "values": [
      {"measurement": "TLR7 activity (NF-κB/AP-1-inducible SEAP reporter)", "setting": "human TLR7", "value": "strong and specific TLR7 activity"},
      {"measurement": "survival of mice", "setting": "B16-F1 tumor", "value": "no survival"}
    ]},
    {"smiles": "CCCCCCCCCCCCCCCCOP(=O)(CCCN[C@@H](CCCCNC(=O)CNC(=O)c1ccc(Cn2c(O)nc3c(N)nc(NCCCC)nc32)cc1)C(=O)NCCCNCCCCNCCCN)OCCCCCCCCCCCCCCCC", "note": "[CL481, (S)-dihexadecyl 19-amino-5-(4-(2-(4-((6-amino-2-(butylamino)-8-hydroxy-9H-purin-9-yl)methyl)benzamido)acetamido)butyl)-6-oxo-4,7,11,16-tetraazanonadecylphosphonate]", "values": [
      {"measurement": "complex formation with pDNA (retardation of pDNA migration in gel)", "setting": "plasmid DNA", "value": "inability to form complex with plasmid DNA"},
      {"measurement": "TLR7 activity (NF-κB/AP-1-inducible SEAP reporter)", "setting": "human TLR7", "value": "strong and specific TLR7 activity"},
      {"measurement": "transfection (SEAP reporter gene expression)", "setting": "[1]", "value": "inability to transfect cells"},
      {"measurement": "transfection (SEAP reporter gene expression)", "setting": "human HEK293 cell line", "value": "inability to transfect cells"}
    ]}
  ]
}
